The text below walks through data of patent US20190112580A1, “METHODS FOR TREATING CO[…] AND RELATED CULTURED CELLS” (priority 2017, published 2019).

The test system of series [1] is CP patient derived myoblast cells. Kind of series: Myoblast fusion and myotube formation, immunostaining and Fusion Index. The following applies: 5 μM, 24 hours pretreatment, 42 hours differentiation. In kind it is cell-based, human.
Description: Myotubes were differentiated using the following methods. Once the appropriate level of cell confluence of 50-80% was obtained for the myoblast cell preparation, fusion and differentiation of myoblasts into myotubes was promoted by switching from a high-serum medium to a low-serum differentiation medium. […] Specifically, the high-serum proliferation medium was made of Ham's F10 medium (Corning Life Sciences, Tewksbury, Mass.) combined with 20% Fetal Bovine Serum (“FBS”) (Gibco brand, Thermo Fischer Scientific, Waltham, Mass.) 10 mg/ml streptomycin, and 100 units/ml penicillin (Gibco), human recombinant bFGF (5 ng/ml) (Becton Dickenson). […] Cell preparations cultured in the low-serum differentiation medium may be analyzed for myotube formation starting from about 24 hours to about 6 weeks after switching from the high-serum to the low-serum medium.
For visual and quantitative analysis by immunostaining, the isolated satellite cell-derived myoblast cell preparations were treated for immunostaining. […] Fluorescence microscopy was performed using an epifluorescence or confocal microscope using the 20× air objective, the 40×, or 63× oil immersion objective and zoom rates between 1 and 3 in sequential scanning mode. […]
Another series relates to ITGB1D. Put plainly: ITGB1D protein quantification by Western blotting. In kind it is cell-based, human. The following applies: 5 μM applied before differentiation; CP cultures; 48 hours of differentiation in low serum medium. How it is done:
After separation, proteins were transferred to 0.45 μm nitrocellulose membrane in a Tris-glycine buffer complemented with 20% methanol. To visualize bands and detect transfer efficiency, membranes were stained with Ponceau S. Membranes were then blocked in a buffer containing 10 mM Tris, 0.15 M NaCl, 0.1% Tween-20 and 1% BSA and incubated with a desired primary antibody (typically 1:500 to 1:1000 dilution) overnight at 4° C. After washing, membranes were incubated with peroxidase-conjugated secondary antibodies (typically at a 1:1000 dilution) for 1 hour at room temperature (Jackson ImmunoResearch Laboratories). Bandscan was identified using chemiluminescence (ECL). Bands also were analyzed by densitometry on a PXi imager (Syngene) and values expressed as arbitrary values of protein levels, normalized either by total proteins transferred on nitrocellulose membrane (as visualized with Ponceau S) or by another reference protein detected by Western blotting.
To test for protein expression levels as shown in FIG. 3A to 3E and FIGS. 4D and 4E, Western blotting was used. […]
Background: Immunoblotting shows a protein as a band on a membrane.

The test system of series [2] is CpG island located in the promoter region of the human ITGB1 gene. Kind of series: Promoter methylation PCR of ITGB1 CpG island. Conditions: 5 μM, 24-hour treatment in proliferation medium before differentiation. In kind it is cell-based.
Protocol: Myoblast cell preparations from CP and TD study subjects were exposed to 5 μM of the DNA methyltransferase inhibitor 5-AZA in proliferation medium. 5-AZA was introduced while the myoblast cell preparations were being developed in the high-serum medium, once the myoblast cell preparations were at about 70% cell confluence by visual inspection. The myoblast cell preparations each were cultured in a high-serum medium in the presence of 5 μM of 5-AZA for 24 hours. The myoblast cell preparations then had the 5-AZA washed off by switching the myoblast cell preparations each to a low-serum medium.
Myoblasts were seeded at 50,000 cells/well, at approximately 13,000 cells/cm^2, in a 12-well plate and maintained in the same proliferation medium as described in Example 1. The cells were allowed to proliferate at 37° C. and 5% CO2 until they reach up to 50-80% cell confluence by visual inspection. The proliferating myoblasts are then treated with 5 μM 5-AZA (Sigma-Aldrich) for 24 hours to induce DNA hypomethylation before differentiation. 5-AZA was obtained from a 10 uM stock solution diluted 1:2000. In a 2000 mL well, 1 mL of 5 μM 5-AZA was used. […]
The PCR amplification curves or the intensity of the amplified product in the agarose gel following electrophoresis may be used to quantify the levels of DNA methylation for a specific promoter region. […]
For series [3], the system named is myoblast cell preparation. Put plainly: 5-AZA concentration and medium finding in myoblast cell preparation. The source says: The myoblast cell preparation may be cultured in a proliferation medium in the presence of a DNA methyltransferase inhibitor, such as 5-AZA. A DNA methyltransferase inhibitor may be introduced while the myoblast cell preparation is being developed in the proliferation medium. For instance, a DNA methyltransferase inhibitor may be introduced once the myoblast cell preparation is at 50-80% cell confluence by visual inspection. A higher confluence percentage or density may be appropriate, so long as the confluence is not so high that the cells become overcrowded or grow in multiple layers, resulting in spontaneous cell fusion and/or cell death. The DNA methyltransferase inhibitor may be introduced earlier, for instance, at the same time the isolated satellite cells are added to the proliferation medium. […] Concentrations of DNA methyltransferase inhibitor used may vary. For example, the myoblast cell preparation may be cultured in proliferation medium in the presence of 5 μM of 5-AZA. […] The myoblast cell preparation may be cultured in the presence of a DNA methyltransferase inhibitor for a period of time. One appropriate period of time using 5 μM of 5-AZA is 24 hours. As few as 6 hours may be appropriate using 5 μM of 5-AZA.

The next series relates to C2C12 myoblasts. Conditions: cited from earlier work.
The mark [4] stands for this setting: 5 μM for 3 days (Montesano et al.).

Each structure is given as a SMILES string.

In the case of `Nc1ncn([C@@H]2O[C@H](CO)[C@@H](O)[C@H]2O)c(=O)n1` [5-AZA, 5-azacytidine], the “myoblast fusion and myotube formation, morphologically” value in series [1] (FIG. 4B) was “sufficient to partially restore myoblast fusion and myotube formation”. Moreover, in series [1] (FIG. 4C), the “myoblast fusion and myotube formation, quantitatively (Fusion Index)” value was “sufficient to partially restore myoblast fusion and myotube formation”. In the series on ITGB1D, the “ITGB1D protein expression levels” value was “sufficient to restore ITGB1D protein expression levels”. Besides, the “DNA methylation of the CpG island in the ITGB1 promoter region” value in series [2] was “sufficient to cause hypomethylation of the CpG island in the ITGB1 promoter region”. In series [3] (0.5 μM of 5-AZA), the myotube growth result is listed as “not sufficiently concentrated to cause appropriate myotube growth”. In series [3] (50 μM of 5-AZA), the “death of the cells” value was “causes the death of the cells in the myoblast cell preparation”. The “concentrations lethal to cells” value in series [3] (human) was not below 50 µM. Further, in the series on C2C12 myoblasts (setting [4]), the “DNA methylation and differentiation” value is “induced DNA hypomethylation and improved differentiation of C2C12 myoblasts”; the cytotoxicity entry is recorded as “without overt signs of cytotoxicity”. Besides, the “muscle-specific gene expression, myogenesis and myotube formation” value in the series on C2C12 myoblasts (mouse-derived C2C12 muscle cell lines) was “promoted expression of muscle-specific genes, enhanced myogenesis and myotube formation”.
